The record followed here is paper PMC11945201, “Enhancing the Oral Bioavailability of Glutathione Using Innovative Analogue Approaches” (Pharmaceutics, 2025).

The nature of this data set: physchem. The protocol: To investigate the potential peptide degradation during storage and when in a cell culture medium, the stability of GSH in NaOH (0.1 molL^−1, pH 13.0), HBSS (pH 7.4), and HCl (0.1 molL^−1, pH 1.0) were investigated. GSH (100 μgmL^−1) was incubated at 37 °C with the above conditions for 24 h or until at least 20% of peptide was degraded. The samples were withdrawn at the time intervals 0, 1, 10, 30, 60, 120, 240, 480, and 1440 min and mixed with equal volume of ice-cold HCl (0.2 molL^−1) until analysis by HPLC. Stability was repeated until three results within <5% SD were obtained.

As a reminder, the half-life is the time needed for the level to fall by half in the phase considered. Read a high half-life as slow loss. Take `N[C@@H](CCC(=O)N[C@@H](CS)C(=O)NCC(=O)O)C(=O)O` [GSH, Glutathione]: the half-life at 100 μgmL^−1 is, setting by setting: (HBSS buffer, pH 7.4) 46.3 ± 2.3 h; (aqueous HCl solution, pH 2) 203 ± 10.1 h; (aqueous NaOH solution, pH 12) 2.5 ± 0.1 h.
